From US12365667B2, “Sulfone pyridine alkyl amide-substituted heteroaryl compounds” (BRISTOL-MYERS SQUIBB COMPANY, priority 2017, dated 2025)

What follows are compounds tested on IFNα-induced STAT phosphorylation (pSTAT5) in human whole blood (assay: IFNα-Induced STAT Phosphorylation in Human Whole Blood). Conditions: 1 h incubation with compound, 1000 U/mL recombinant human IFNα A/D for 15 min, pSTAT5 in CD3 positive population, read-out: IFNα-Induced Stat Phosph. (IC50).
Assay type: cell-based
Procedure: IFNα-Induced STAT Phosphorylation in Human Whole Blood
After an hour long incubation with compound, human whole blood (drawn with either EDTA or ACD-A as anti-coagulant) was stimulated with 1000 U/mL recombinant human IFNα A/D (R&D Systems 11200-2) for 15 min. The stimulation was stopped by adding Fix/Lyse buffer (BD 558049). Cells were stained with a CD3 FITC antibody (BD 555916), washed, and permeabilized on ice using Perm III buffer (BD 558050). Cells were then stained with an Alexa-Fluor 647 pSTAT5 (pY694) antibody (BD 612599) for 30 min prior to analysis on the FACS Canto II. The amount of pSTAT5 expression was quantitated by median fluorescence intensity after gating on the CD3 positive population.

IC50 [nM]	Structure (SMILES)
21	CNC(=O)c1nnc(Nc2ccc(C(C)(C)OC)cn2)cc1Nc1ncccc1S(C)(=O)=O [Example 157]
10	CNC(=O)c1nnc(Nc2ccc(OCCOC)cn2)cc1Nc1ncccc1S(C)(=O)=O [Example 158]
11	CNC(=O)c1nnc(Nc2ccccn2)cc1Nc1ncccc1S(C)(=O)=O [Example 160]
47	CNC(=O)c1nnc(Nc2cc(Cl)n(C)n2)cc1Nc1ncccc1S(C)(=O)=O [Example 161]
88	CNC(=O)c1nnc(NC(=O)CC2CC2)cc1Nc1ncccc1S(C)(=O)=O [Example 164]
23	CNC(=O)c1nnc(Nc2cc(C3CC3)nc(C)n2)cc1Nc1ncccc1S(C)(=O)=O [Example 165]
60	CNC(=O)c1nnc(Nc2ccn(C3CC3)n2)cc1Nc1ncccc1S(C)(=O)=O [Example 167]
1060	CCC(=O)Nc1cc(Nc2nc(F)ccc2S(C)(=O)=O)c(C(=O)NC)nn1 [Example 179]
73	CNC(=O)c1nnc(NC(=O)C2CC2)cc1Nc1nc(F)ccc1S(C)(=O)=O [Example 180]
550	CNC(=O)c1nnc(Nc2ccc(OC)nn2)cc1Nc1nc(F)ccc1S(C)(=O)=O [Example 181]
2230	CNC(=O)c1nnc(Nc2ccc(-c3c(F)cccc3F)nn2)cc1Nc1nc(F)ccc1S(C)(=O)=O [Example 182]
263	CNC(=O)c1nnc(Nc2ccc(-c3c(F)cccc3F)nn2)cc1Nc1nc(C)ccc1S(C)(=O)=O [Example 184]
1730	CNC(=O)c1nnc(Nc2cc(C)nc(C)n2)cc1Nc1nc(C)ccc1S(C)(=O)=O [Example 185]
132	CCC(=O)Nc1cc(Nc2nc(C)ccc2S(C)(=O)=O)c(C(=O)NC)nn1 [Example 186]
32	CNC(=O)c1nnc(NC(=O)C2CC2)cc1Nc1nc(C)ccc1S(C)(=O)=O [Example 187]
6	CNC(=O)c1nnc(Nc2ccc(C(C)(C)O)cn2)cc1Nc1nc(C)ccc1S(C)(=O)=O [Example 188]
61	CNC(=O)c1nnc(Nc2ccc(-n3cccc(C(F)(F)F)c3=O)cn2)cc1Nc1nc(C)ccc1S(C)(=O)=O [Example 190]
66	CCNC(=O)Nc1cc(Nc2nc(C)ccc2S(C)(=O)=O)c(C(=O)NC)nn1 [Example 191]
13	CNC(=O)c1nnc(Nc2ccc(N3CCOCC3)cn2)cc1Nc1nc(C)ccc1S(C)(=O)=O [Example 192]
165	CCCCNC(=O)Nc1cc(Nc2nc(C)ccc2S(C)(=O)=O)c(C(=O)NC)nn1 [Example 193]
35	CNC(=O)c1nnc(Nc2cc(Cl)c(C(C)(C)O)cn2)cc1Nc1nc(C)ccc1S(C)(=O)=O [Example 194]
211	CNC(=O)c1nnc(Nc2ccn3nccc3n2)cc1Nc1nc(C)ccc1S(C)(=O)=O [Example 195]
12	CNC(=O)c1nnc(Nc2ccc(N3CCOCC3=O)cn2)cc1Nc1nc(C)ccc1S(C)(=O)=O [Example 196]
58	CNC(=O)c1nnc(Nc2cc(C3CC3)ccn2)cc1Nc1nc(C)ccc1S(C)(=O)=O [Example 197]
262	CNC(=O)c1nnc(NC(=O)C2CC2(C)C)cc1Nc1nc(C)ccc1S(C)(=O)=O (centres unmarked) [Example 198]
198	CNC(=O)c1nnc(NC(=O)C2CC2)cc1Nc1nc(OC)ccc1S(C)(=O)=O [Example 200]
24	CNC(=O)c1nnc(Nc2ccc(C(C)(C)O)cn2)cc1Nc1nc(OC)ccc1S(C)(=O)=O [Example 201]
50	CNC(=O)c1nnc(Nc2cc(Cl)c(C(C)(C)O)cn2)cc1Nc1nc(OC)ccc1S(C)(=O)=O [Example 202]
46	CNC(=O)c1nnc(Nc2ccc(N3CCOCC3)cn2)cc1Nc1nc(OC)ccc1S(C)(=O)=O [Example 203]
579	CNC(=O)c1nnc(Nc2ccn(C)n2)cc1Nc1nc(OC)ccc1S(C)(=O)=O [Example 204]

Same assay, conditions: Homo sapiens, 1 h incubation with compound, 1000 U/mL recombinant human IFNα A/D for 15 min, pSTAT5 in CD3 positive population, read-out: IFNα-Induced Stat Phosph. (IC50)

IC50 [nM]	Structure (SMILES)
12	[2H]C([2H])([2H])NC(=O)c1nnc(NC(=O)C2CC2)cc1Nc1ncccc1S(C)(=O)=O [Example 159, 6-(cyclopropanecarboxamido)-N-trideuteromethyl-4-((3-(methylsulfonyl)pyridin-2-yl)amino)pyridazine-3-carboxamide]
95	[2H]C([2H])([2H])NC(=O)c1nnc(NC(C)=O)cc1Nc1ncccc1S(C)(=O)=O [Example 163, 6-acetamido-N-trideuteromethyl-4-((3-(methylsulfonyl)pyridin-2-yl)amino)pyridazine-3-carboxamide]
40	[2H]C([2H])([2H])NC(=O)c1nnc(Nc2ccn(C)n2)cc1Nc1ncccc1S(C)(=O)=O [Example 166, N-trideuteromethyl-6-((1-methyl-1H-pyrazol-3-yl)amino)-4-((3-(methylsulfonyl)pyridin-2-yl)amino)pyridazine-3-carboxamide]
8	[2H]C([2H])([2H])NC(=O)c1nnc(Nc2ccc(C(C)(C)NC(C)C)cn2)cc1Nc1ncccc1S(C)(=O)=O [Example 169, 6-((5-(2-(isopropylamino)propan-2-yl)pyridin-2-yl)amino)-N-(methyl-d3)-4-((3-(methylsulfonyl)pyridin-2-yl)amino)pyridazine-3-carboxamide]
9	[2H]C([2H])([2H])NC(=O)c1nnc(Nc2ccc(C(C)(C)OC(C)=O)cn2)cc1Nc1ncccc1S(C)(=O)=O [Example 171, 2-(6-((6-((methyl-d3)carbamoyl)-5-((3-(methylsulfonyl)pyridin-2-yl)amino)pyridazin-3-yl)amino)pyridin-3-yl)propan-2-yl acetate]
18	[2H]C([2H])([2H])NC(=O)c1nnc(Nc2ccc(C(F)F)cn2)cc1Nc1ncccc1S(C)(=O)=O [Example 172, 6-((5-(difluoromethyl)pyridin-2-yl)amino)-N-(methyl-d3)-4-((3-(methylsulfonyl)pyridin-2-yl)amino)pyridazine-3-carboxamide]
17	[2H]C([2H])([2H])NC(=O)c1nnc(Nc2cncc(C)n2)cc1Nc1ncccc1S(C)(=O)=O [Example 173, N-(methyl-d3)-6-((6-methylpyrazin-2-yl)amino)-4-((3-(methylsulfonyl)pyridin-2-yl)amino)pyridazine-3-carboxamide]
1810	[2H]C([2H])([2H])NC(=O)c1nnc(NC(=O)C2CC2(Cl)Cl)cc1Nc1ncccc1S(C)(=O)=O (centres unmarked) [Example 174, 6-(2,2-dichlorocyclopropane-1-carboxamido)-N-(methyl-d3)-4-((3-(methylsulfonyl)pyridin-2-yl)amino)pyridazine-3-carboxamide]
278	[2H]C([2H])([2H])NC(=O)c1nnc(NC(=O)[C@H]2C[C@@H]2C(F)(F)F)cc1Nc1ncccc1S(C)(=O)=O [Example 175, N-(methyl-d3)-4-((3-(methylsulfonyl)pyridin-2-yl)amino)-6-((1S,2S)-2-(trifluoromethyl)cyclopropane-1-carboxamido)pyridazine-3-carboxamide]
132	[2H]C([2H])([2H])NC(=O)c1nnc(NC(=O)[C@@H]2C[C@H]2C(F)(F)F)cc1Nc1ncccc1S(C)(=O)=O [Example 176, N-(methyl-d3)-4-((3-(methylsulfonyl)pyridin-2-yl)amino)-6-((1R,2R)-2-(trifluoromethyl)cyclopropane-1-carboxamido)pyridazine-3-carboxamide]
648	[2H]C([2H])([2H])NC(=O)c1nnc(NC(=O)C2CC(F)(F)C2)cc1Nc1ncccc1S(C)(=O)=O [Example 177, 6-(3,3-difluorocyclobutane-1-carboxamido)-N-(methyl-d3)-4-((3-(methylsulfonyl)pyridin-2-yl)amino)pyridazine-3-carboxamide]
474	[2H]C([2H])([2H])NC(=O)c1nnc(Nc2cc(C)nc(C)n2)cc1Nc1nc(F)ccc1S(C)(=O)=O [Example 178, 6-((2,6-dimethylpyrimidin-4-yl)amino)-4-((6-fluoro-3-(methylsulfonyl)pyridin-2-yl)amino)-N-(methyl-d3)pyridazine-3-carboxamide]
105	[2H]C([2H])([2H])NC(=O)c1nnc(Nc2ccc(OC)nn2)cc1Nc1nc(C)ccc1S(C)(=O)=O [Example 183, 6-((6-methoxypyridazin-3-yl)amino)-N-(methyl-d3)-4-((6-methyl-3-(methylsulfonyl)pyridin-2-yl)amino)pyridazine-3-carboxamide]
1030	[2H]C([2H])([2H])NC(=O)c1nnc(NC(=O)CC)cc1Nc1nc(OC)ccc1S(C)(=O)=O [Example 199, 4-((6-methoxy-3-(methylsulfonyl)pyridin-2-yl)amino)-N-(methyl-d3)-6-propionamidopyridazine-3-carboxamide]
229	[2H]C([2H])([2H])NC(=O)c1nnc(Nc2ccc(C(C)(C)O)cc2)cc1Nc1nc(C2CC2)ccc1S(C)(=O)=O [Example 207, 4-((6-cyclopropyl-3-(methylsulfonyl)pyridin-2-yl)amino)-6-((4-(2-hydroxypropan-2-yl)phenyl)amino)-N-(methyl-d3)pyridazine-3-carboxamide]
56	CNC(=O)c1nnc(Nc2ccc(OC)nn2)cc1Nc1ncccc1S(C)(=O)=O [Example 209, 6-((6-methoxypyridazin-3-yl)amino)-N-methyl-4-((3-(methylsulfonyl)pyridin-2-yl)amino)pyridazine-3-carboxamide]
90	CCNC(=O)c1nnc(Nc2ccc(C(C)(C)O)cn2)cc1Nc1ncccc1S(C)(=O)=O [Example 211, N-ethyl-6-((5-(2-hydroxypropan-2-yl)pyridin-2-yl)amino)-4-((3-(methylsulfonyl)pyridin-2-yl)amino)pyridazine-3-carboxamide]
